Assay results: ChEMBL document CHEMBL3885861, “Open TG-GATES”

Species on record: Rattus norvegicus
Test: Open TG-GATES - Regimen: Daily Repeat
Format: toxicity, organism-based, Sprague-Dawley
Design: regimen Daily Repeat, gender Male, age 6 weeks
Settings: in vivo, po, 50 mg/kg, route gavage, dose level Middle; for APTT / Bas / Eos / Fbg / Hb / Ht / Lym / MCH / MCHC / MCV / Mono / Neu / PT / Plat / RBC / Ret / WBC: tissue Blood; for KIDNEY_L / KIDNEY_R / KIDNEY_TOTAL: tissue Kidney; for LIVER: tissue Liver; for A/G / ALP / ALT / AST / BUN / CRE / Ca / Cl / DBIL / GLC / IP / K / LDH / Na / PL / RALB / TBIL / TC / TG / TP / gamma-GTP: tissue Plasma

For `CC(C)C(=O)Nc1ccc([N+](=O)[O-])c(C(F)(F)F)c1` [FLUTAMIDE], the TERMINAL_BW (72 h, time 3 day) was 215.7 g, the APTT (72 h, time 3 day) was 18.3 s and the Bas (72 h, time 3 day) was 0%. It also gave an Eos (72 h, time 3 day) of 1.2%, a Fbg (72 h, time 3 day) of 217 mg/dL and a Hb (72 h, time 3 day) of 14.3 g/dL. For the same compound, the Ht (72 h, time 3 day) was 43.4%, the Lym (72 h, time 3 day) was 78% and the MCH (72 h, time 3 day) was 20.9 pg. The MCHC (72 h, time 3 day) was 32.9%, the MCV (72 h, time 3 day) was 63.5 fL and the Mono (72 h, time 3 day) was 2.6%. For the same compound, the Neu (72 h, time 3 day) was 17.4%, the PT (72 h, time 3 day) was 12.3 s and the Plat (72 h, time 3 day) was 115.2 x10_4/uL. It also gave an RBC (72 h, time 3 day) of 685 x10_4/ul, a Ret (72 h, time 3 day) of 4.1% and a WBC (72 h, time 3 day) of 77.6 x10_2/uL. It also gave a KIDNEY_L (72 h, time 3 day) of 0.9 g, a KIDNEY_R (72 h, time 3 day) of 1 g and a KIDNEY_TOTAL (72 h, time 3 day) of 1.9 g. For the same compound, the LIVER (72 h, time 3 day) was 11.1 g, the A/G (72 h, time 3 day) was 1.7 and the ALP (72 h, time 3 day) was 1001 IU/L. The ALT (72 h, time 3 day) was 38 IU/L, the AST (72 h, time 3 day) was 66.2 IU/L and the BUN (72 h, time 3 day) was 14.6 mg/dL. For the same compound, the CRE (72 h, time 3 day) was 0.4 mg/dL, the Ca (72 h, time 3 day) was 10.7 mg/dL and the Cl (72 h, time 3 day) was 105 meq/L. For the same compound, the DBIL (72 h, time 3 day) was 0.098 mg/dL, the GLC (72 h, time 3 day) was 210.8 mg/dL and the IP (72 h, time 3 day) was 6.9 mg/dL. It also gave a K (72 h, time 3 day) of 3.6 meq/L, an LDH (72 h, time 3 day) of 175.8 IU/L and a Na (72 h, time 3 day) of 142 meq/L. The PL (72 h, time 3 day) was 162.4 mg/dL, the RALB (72 h, time 3 day) was 3.6 g/dL and the TBIL (72 h, time 3 day) was 0.2 mg/dL. For the same compound, the TC (72 h, time 3 day) was 97.8 mg/dL, the TG (72 h, time 3 day) was 66.6 mg/dL and the TP (72 h, time 3 day) was 5.7 g/dL. For the same compound, the gamma-GTP (72 h, time 3 day) was 1 IU/L, the TERMINAL_BW ([…], time 7 day) was 244.8 g and the TERMINAL_BW ([…], time 14 day) was 289.8 g. For the same compound, the TERMINAL_BW ([…], time 28 day) was 352.3 g, the APTT ([…], time 7 day) was 16.9 s and the Bas ([…], time 7 day) was 0%. It also gave an Eos ([…], time 7 day) of 1%, a Fbg ([…], time 7 day) of 221.4 mg/dL and a Hb ([…], time 7 day) of 13.6 g/dL. For the same compound, the Ht ([…], time 7 day) was 40.5%, the Lym ([…], time 7 day) was 82.2% and the MCH ([…], time 7 day) was 20.6 pg. For the same compound, the MCHC ([…], time 7 day) was 33.7%, the MCV ([…], time 7 day) was 61.2 fL and the Mono ([…], time 7 day) was 2.6%. It also gave a Neu ([…], time 7 day) of 13.8%, a PT ([…], time 7 day) of 12.7 s and a Plat ([…], time 7 day) of 126 x10_4/uL. For the same compound, the RBC ([…], time 7 day) was 661.8 x10_4/ul, the Ret ([…], time 7 day) was 4.8% and the WBC ([…], time 7 day) was 115.5 x10_2/uL. It also gave an APTT ([…], time 14 day) of 20.1 s, a Bas ([…], time 14 day) of 0% and an Eos ([…], time 14 day) of 1%. It also gave a Fbg ([…], time 14 day) of 216.8 mg/dL, a Hb ([…], time 14 day) of 14.2 g/dL and a Ht ([…], time 14 day) of 41.8%. The Lym ([…], time 14 day) was 82%, the MCH ([…], time 14 day) was 20.7 pg and the MCHC ([…], time 14 day) was 34.1%. The MCV ([…], time 14 day) was 60.9 fL, the Mono ([…], time 14 day) was 1.8% and the Neu ([…], time 14 day) was 14.4%. For the same compound, the PT ([…], time 14 day) was 12.6 s, the Plat ([…], time 14 day) was 116.7 x10_4/uL and the RBC ([…], time 14 day) was 687.8 x10_4/ul. For the same compound, the Ret ([…], time 14 day) was 4%, the WBC ([…], time 14 day) was 138.1 x10_2/uL and the APTT ([…], time 28 day) was 19.2 s. It also gave a Bas ([…], time 28 day) of 0%, an Eos ([…], time 28 day) of 1% and a Fbg ([…], time 28 day) of 225 mg/dL. It also gave a Hb ([…], time 28 day) of 15 g/dL, a Ht ([…], time 28 day) of 42.3% and a Lym ([…], time 28 day) of 83.8%. It also gave an MCH ([…], time 28 day) of 20.2 pg, an MCHC ([…], time 28 day) of 35.6% and an MCV ([…], time 28 day) of 56.9 fL. It also gave a Mono ([…], time 28 day) of 2%, a Neu ([…], time 28 day) of 12.2% and a PT ([…], time 28 day) of 12.5 s. The Plat ([…], time 28 day) was 107.9 x10_4/uL, the RBC ([…], time 28 day) was 743.2 x10_4/ul and the Ret ([…], time 28 day) was 2.1%. For the same compound, the WBC ([…], time 28 day) was 114.3 x10_2/uL, the KIDNEY_L ([…], time 7 day) was 1 g and the KIDNEY_R ([…], time 7 day) was 1 g. It also gave a KIDNEY_TOTAL ([…], time 7 day) of 2 g, a KIDNEY_L ([…], time 14 day) of 1.2 g and a KIDNEY_R ([…], time 14 day) of 1.1 g. The KIDNEY_TOTAL ([…], time 14 day) was 2.3 g, the KIDNEY_L ([…], time 28 day) was 1.3 g and the KIDNEY_R ([…], time 28 day) was 1.3 g. It also gave a KIDNEY_TOTAL ([…], time 28 day) of 2.5 g, an LIVER ([…], time 7 day) of 12.8 g and an LIVER ([…], time 14 day) of 14.8 g. The LIVER ([…], time 28 day) was 16.8 g, the A/G ([…], time 7 day) was 1.7 and the ALP ([…], time 7 day) was 753 IU/L. The ALT ([…], time 7 day) was 36.4 IU/L, the AST ([…], time 7 day) was 54.4 IU/L and the BUN ([…], time 7 day) was 15.6 mg/dL. It also gave a CRE ([…], time 7 day) of 0.4 mg/dL, a Ca ([…], time 7 day) of 10.9 mg/dL and a Cl ([…], time 7 day) of 103.8 meq/L. The DBIL ([…], time 7 day) was 0.09 mg/dL, the GLC ([…], time 7 day) was 215.2 mg/dL and the IP ([…], time 7 day) was 6.8 mg/dL. It also gave a K ([…], time 7 day) of 3.7 meq/L, an LDH ([…], time 7 day) of 169.2 IU/L and a Na ([…], time 7 day) of 140.6 meq/L. For the same compound, the PL ([…], time 7 day) was 156.2 mg/dL, the RALB ([…], time 7 day) was 3.7 g/dL and the TBIL ([…], time 7 day) was 0.1 mg/dL. It also gave a TC ([…], time 7 day) of 88.4 mg/dL, a TG ([…], time 7 day) of 67 mg/dL and a TP ([…], time 7 day) of 6 g/dL. For the same compound, the gamma-GTP ([…], time 7 day) was 0.2 IU/L, the A/G ([…], time 14 day) was 1.5 and the ALP ([…], time 14 day) was 685.8 IU/L. The ALT ([…], time 14 day) was 33.2 IU/L, the AST ([…], time 14 day) was 59.2 IU/L and the BUN ([…], time 14 day) was 14.4 mg/dL. For the same compound, the CRE ([…], time 14 day) was 0.5 mg/dL, the Ca ([…], time 14 day) was 10.6 mg/dL and the Cl ([…], time 14 day) was 103.8 meq/L. The DBIL ([…], time 14 day) was 0.086 mg/dL, the GLC ([…], time 14 day) was 192 mg/dL and the IP ([…], time 14 day) was 6.2 mg/dL. It also gave a K ([…], time 14 day) of 3.8 meq/L, an LDH ([…], time 14 day) of 148 IU/L and a Na ([…], time 14 day) of 141.8 meq/L. It also gave a PL ([…], time 14 day) of 132 mg/dL, an RALB ([…], time 14 day) of 3.5 g/dL and a TBIL ([…], time 14 day) of 0.1 mg/dL. The TC ([…], time 14 day) was 70.6 mg/dL, the TG ([…], time 14 day) was 58.6 mg/dL and the TP ([…], time 14 day) was 5.9 g/dL. It also gave a gamma-GTP ([…], time 14 day) of 1 IU/L, an A/G ([…], time 28 day) of 1.5 and an ALP ([…], time 28 day) of 449.8 IU/L. It also gave an ALT ([…], time 28 day) of 30.6 IU/L, an AST ([…], time 28 day) of 48.6 IU/L and a BUN ([…], time 28 day) of 17.4 mg/dL. The CRE ([…], time 28 day) was 0.5 mg/dL, the Ca ([…], time 28 day) was 10.5 mg/dL and the Cl ([…], time 28 day) was 103.8 meq/L. The DBIL ([…], time 28 day) was 0.078 mg/dL, the GLC ([…], time 28 day) was 227.2 mg/dL and the IP ([…], time 28 day) was 6.9 mg/dL. For the same compound, the K ([…], time 28 day) was 3.5 meq/L, the LDH ([…], time 28 day) was 124.2 IU/L and the Na ([…], time 28 day) was 141.8 meq/L. The PL ([…], time 28 day) was 167.4 mg/dL, the RALB ([…], time 28 day) was 3.8 g/dL and the TBIL ([…], time 28 day) was 0.1 mg/dL. The TC ([…], time 28 day) was 93.2 mg/dL, the TG ([…], time 28 day) was 54.2 mg/dL and the TP ([…], time 28 day) was 6.3 g/dL. For the same compound, the gamma-GTP ([…], time 28 day) was 1.6 IU/L.
